In patent publication US20230218654A1, “COMPOSITIONS AND METHODS FOR TREATING HYPERGLYCEMIA IN TYPE-2 DIABETES” (The Board of Regents of the university of Oklahoma, priority 2020, published 2023):
“Also recorded” adds a separate entry of the source.

Experiments:
Format in all cases: cell-based
AML12 mouse hepatocytes = test: Western blot of insulin signaling and cullin neddylation in AML12 cells
Experimental: MLN4924 increases IRS protein and AKT activation in the presence of insulin. Mouse AML 12 hepatocytes were serum starved for 16 h. Cells were then pre-treated with MLN4924 for 1 h followed by 100 nM insulin stimulation for 4 h. Western blot was then performed to evaluate insulin signaling activation.
AML 12 cells were serum starved for 16 h. Cells were then pre-treated with 500 nM MLN4924 or vehicle (DMSO) for 1 h, followed by 100 µg/ml cycloheximide (CHX) and 100 nM insulin treatment.
AML12 cells were serum starved for 16 h. Cells were then pre-treated with 500 nM MLN4924 for 1 h followed by 100 nM insulin stimulation in time course.
FIG. 18A is a Western blot analysis showing that MLN4924 enhances hepatocyte insulin responsiveness (signaling) by delaying feedback IRS degradation. AML12 cells were serum starved for 16 h. Cells were then pre-treated with MLN4924 for 1 h followed by insulin stimulation for 4 h.
FIG. 18D is a Western blot analysis of insulin signaling in AML12 cells serum starved for 16 h, then pre-treated with 500 nM MLN4924 for 1 h followed by 100 nM insulin stimulation in time course.
FIG. 18E is a Western blot analysis of AML12 cells serum starved for 16 h then pre-treated with 500 nM MLN4924 or vehicle (DMSO) for 1 h, followed by 100 µg/ml cycloheximide (CHX) and 100 nM insulin treatment. Cells were collected at the indicated time for Western blotting.
FIG. 18F is a Western blot analysis of insulin signaling in AML12 cells serum starved for 16 h then pre-treated with 100 nM rapamycin and 500 nM MLN4924 as indicated for 1 h followed by additional 2 h incubation in the presence or absence of 100 nM insulin. Blots are representative of 2-4 independent experiments.
(§1) FIG. 20 is a Western blot analysis showing that MLN4924 enhances hepatocyte insulin responsiveness in cells treated with wortmannin by delaying feedback IRS degradation (related to FIG. 18A). AML12 cells were serum starved for 16 h then pre-treated with 1 µM wortmannin (Wort) and 500 nM MLN4924 as indicated for 1 h followed by additional 2 h incubation in the presence or absence of 100 nM insulin. Blots are representative of 2 independent experiments.
as §1, with “21” for “20”, “Torin 1” for “wortmannin”, “250 nM Torin1” for “1 µM wortmannin (Wort)”
MLN4924 and TAS4464 were purchased from MedChemExpress (MCE, Monmouth Junction, NJ). For cell treatment, MLN4924 and TAS4464 were dissolved in DMSO. Cells were serum starved overnight and then treated with MLN4924, TAS4464 and/or insulin as indicated. For injection in mice, MLN4924 and TAS4464 were first dissolved in DMSO, which was further suspended in 10% (2-hydroxypropyl)-β-cyclodextrin (Sigma, St. Louis, MO). The final solution contains 1% DMSO. The subcutaneous injection volume is 200 µl/mouse.
Protein lysates were prepared in RIPA buffer containing 1% SDS and protease inhibitors on ice for 1 h followed by brief sonication. After centrifugation, supernatant was used for SDS-PAGE and immunoblotting.
AML12 cells were a generous gift from Dr. Yanqiao Zhang (Northeast Ohio Medical University). AML12 cells were cultured in DMEM medium supplemented with a mixture of insulin-transferrin-selenium (#41400-045, ThermoFisher, Waltham, MA). For experiments, cells were cultured in serum free medium overnight before various treatments were initiated. The siGENOME SMARTpool siRNA and siControl were purchased from Dharmacon, Inc. (Lafayette, CO). The siRNA was transfected with Lipofectamine RNAiMAX reagent in a final concentration of 25 nM recommended by the manufacturer. […]

[1] = test system: differentiated C2C12 myocytes; test: Glucose uptake assay; details: 500 nM MLN4924 6 h, 100 nM insulin 1 hour
Experimental: Differentiated C2C12 myocytes were treated with MLN4924 (500 nM) and then stimulated with 100 nM insulin as indicated. Glucose uptake into the cells was measured. Glucose uptake into the cells was increased in the presence of MLN4924.Results are mean+/-SD of 5 replicates. “* ”, p less than 0.05, vs Vehicle-treated control.“#”, vs. insulin treated, p less than 0.05.
(§2) C2C12 myoblast cells were cultured in DMEM medium supplemented with 10% FBS. When cells grow to 60% confluency, differentiation into myocytes was induced by culturing cells in DMEM supplemented with 2% horse serum for 4-6 days. Cells were then serum starved overnight and treated with 500 nM MLN4924 or DMSO for 6 h and then stimulated with 100 nM insulin for 1 hour as indicated. Glucose uptake was measured with a Glucose uptake Glo^tm assay kit that was purchased from Promega (Madison, WI).

[2] = test system: differentiated C2C12 myocytes; test: Western blot of insulin signaling in differentiated C2C12 myocytes; details: 500 nM, 1 h, then 100 nM insulin in time course
Experimental: Differentiated C2C12 myocytes were pre-treated with MLN4924 (500 nM) for 1 h followed by 100 nM insulin treatment in time course.
as §2
Skeletal muscle is a major organ that is responsible for the majority of the blood glucose clearance during postprandial state. Insulin resistance in muscle causes impaired insulin-stimulated glucose uptake that contributes to hyperglycemia in diabetes. To determine if CRL inhibition in muscle cells may contribute to the insulin sensitizing and glucose lowering effect in obese mice, differentiated C2C12 myocytes were treated with MLN4924 to inhibit CRLs (FIG. 8A). […] To further determine if MLN4924 treatment increases muscle glucose clearance, a glucose tolerance test (GTT) was performed, in which reduction of glucose excursion is mainly attributed to blood glucose clearance by muscle.

[3] = insulin stimulated, MLN4924 pre-treatment 1 h, insulin 4 h

NS(=O)(=O)OC[C@@H]1C[C@@H](n2ccc3c(N[C@H]4CCc5ccccc54)ncnc32)C[C@@H]1O [MLN4924, ((1S,2S,4R)-4-(4-((1S)-2,3-dihydro-1H-inden-1-ylamino)-7H-pyrrolo[2,3-d]pyrimidin-7-yl)-2-hydroxycyclopentyl) methyl sulfamate]
IRS protein in the presence of rapamycin (AML12 mouse hepatocytes; 500 nM MLN4924 + 100 nM rapamycin, 100 nM insulin): did not further increase IRS protein | IRS1 S307 phosphorylation (AML12 mouse hepatocytes; 500 nM, 100 nM insulin time course): also higher | insulin signaling desensitization (IRS1(Y612), AKT(S473)) (AML12 mouse hepatocytes; 500 nM, 1 h, then 100 nM insulin in time course): significantly delayed cellular insulin desensitization; also recorded: significantly delayed insulin signaling desensitization | insulin-induced IRS degradation (AML12 mouse hepatocytes; 500 nM, 100 µg/ml cycloheximide (CHX) and 100 nM insulin): significantly delayed | further MLN4924-mediated IRS enrichment and insulin sensitization (AML12 mouse hepatocytes; Cul1 or Cul3 knockdown cells, 500 nM): limited but not fully abolished | AKT S473 phosphorylation (AML12 mouse hepatocytes; [3]): increased AKT S473 phosphorylation | IR (Y1150) phosphorylation (AML12 mouse hepatocytes; [3]): but not IR (Y1150) phosphorylation | IRS1(Y612) phosphorylation (AML12 mouse hepatocytes; [3]): enhanced IRS1(Y612) phosphorylation | total IRS1 and IRS2 protein (AML12 mouse hepatocytes; [3]): dose-dependently increased total IRS1 and IRS2 protein | further IRS protein stabilization caused by MLN4924 (AML12 mouse hepatocytes; simultaneous knockdown of Cul1 and Cul3, 500 nM): largely abolished | glucose uptake [1]: increased glucose uptake | IRS1 and IRS2 degradation upon insulin stimulation [2]: delayed IRS1 and IRS2 degradation | insulin activation of AKT phosphorylation [2]: increased insulin activation of AKT phosphorylation
